Data reported in patent publication US20100041089A1, “IMPROVED METHOD FOR DETECTING CHEMICAL […]” (priority 2006, published 2010).

Tested on: yeast genes (expressed mRNA)
Test: DNA chip measurement of expressed mRNA of yeast genes after culture with a toxic chemical substance
Format: cell-based, Saccharomyces cerevisiae S288C
Details: for level of expressed mRNA in the presence of chemical substance / level in the absence of chemical substance: cultured two hours with the chemical substance; for The level of expressed mRNA in the presence of chemical substance/The level of expressed mRNA in the absence of chemical substance: cultured two hours with substance
Protocol: Yeast (Saccharomyces cerevisiae S288C (a SUC2mal mel gap2 CUP1)) were cultured at 25° C. on YPD medium (yeast extract 1%, polypeptone 2%, glucose 2%). One of toxic chemical substances was added to the cell at logarithmic growth phase, and the cell was further cultured for two hours. Cell was cultured without any chemical substance in the same condition, and was used as a control. Concentrations of the chemical substances were defined to inhibit the growth of the yeast but not lead to death.
After the completion of cultivation, the culture was centrifuged to collect the cells. To the cells, sodium acetate buffer (50 mM sodium acetate, 10 mM EDTA, 1% SDS) was added, and the mixture was shaken at 65° C. for five minutes, followed by returning to room temperature, and obtaining the supernatant, which procedure was repeated two times. To the supernatant, ½ amount of a solution of phenol/chloroform (1:1) was added, and the mixture was centrifuged to give a supernatant, an equal amount of chloroform was added, and the mixture was centrifuged to give a supernatant. To the supernatant, an equal amount of isopropanol containing 0.3 M sodium acetate was added, and the mixture was allowed to stand at room temperature for 30 minutes, after which the mixture was centrifuged to give sediment of the whole RNAs. Seventy % ethanol was added to the sediment, and the mixture was again centrifuged to give sediment, which was then dried and dissolved in water. mRNA was isolated from the whole RNAs as followings. In view of the fact that a poly A chain is attached to the 3′ terminus of mRNA, a polynucleotide having a poly T structure which was immobilized on the surface of latex beads was used to trap the mRNA, and then the mRNA was washed and eluted with spine column (Oligotex-dT30<Super>mRNA Purification Kit, Takara). Reverse transcription of the mRNA was conducted with a reverse transcriptase (Super Script II Reverse Transcriptase; catalogue No. 18064-014, GibcoBRL) using fluorescence-labeled nucleotides to give cDNAs that were introduced with Cy3-dUTP or Cy5-dUTP during the reverse transcription.
The labeled cDNAs were dissolved in TE buffer (10 mM Tris-HCl/1 mM EDTA, pH 8.0), and the solution was dropped on the DNA chip containing the whole genes of yeast (DNA Chip Research Inc. Japan) so that the cDNAs were hybridized on the DNA chip at 65° C. for over 12 hours. The fluoresces intensity of the DNA chip was read with a scanner, and the ratio relative to the fluorescence intensity resulting from the absence of chemical substance was estimated as the following, which is shown in Tables 1 to 9.
In the Tables, “Intensity” indicated in the rightmost column is a value of the level of expressed mRNA of each gene in control cells as divided by the average level of the expressions of the whole genes. A gene of which mRNA level is lower in control, and is higher in cases of addition of chemical substance, is especially useful in the detection of toxic substances.
Here, when a ratio of an amount of mRNA expressed in the presence of the chemical substance to an amount of mRNA expressed in the absence of the chemical substance is two or more, then it is considered significant.

Compound: CCCCCCCCCCCCc1ccc(S(=O)(=O)[O-])cc1.[Na+] [(17), Sodium dodecylbenzosulfonate]
- level of expressed mRNA in the presence of chemical substance / level in the absence of chemical substance (yeast gene YJL097W): 1.2
- The level of expressed mRNA in the presence of chemical substance/The level of expressed mRNA in the absence of chemical substance (yeast gene YJL151C): 3.5
- The level of expressed mRNA in the presence of chemical substance/The level of expressed mRNA in the absence of chemical substance (yeast gene YJL152W): 2.5
- The level of expressed mRNA in the presence of chemical substance/The level of expressed mRNA in the absence of chemical substance (yeast gene YJL161W): 1.9
- The level of expressed mRNA in the presence of chemical substance/The level of expressed mRNA in the absence of chemical substance (yeast gene YJL171C): 3.6
- The level of expressed mRNA in the presence of chemical substance/The level of expressed mRNA in the absence of chemical substance (yeast gene YJR008W): 1.5
- level of expressed mRNA in the presence of chemical substance / level in the absence of chemical substance (yeast gene YJR030C): 0.7
- The level of expressed mRNA in the presence of chemical substance/The level of expressed mRNA in the absence of chemical substance (yeast gene YJR054W): 0.9
- level of expressed mRNA in the presence of chemical substance / level in the absence of chemical substance (yeast gene YKL051W): 1.5
- The level of expressed mRNA in the presence of chemical substance/The level of expressed mRNA in the absence of chemical substance (yeast gene YKL071W): 1.0
- The level of expressed mRNA in the presence of chemical substance/The level of expressed mRNA in the absence of chemical substance (yeast gene YKL086W): 0.9
- level of expressed mRNA in the presence of chemical substance / level in the absence of chemical substance (yeast gene YKL097C): 1.1
- level of expressed mRNA in the presence of chemical substance / level in the absence of chemical substance (yeast gene YKL100C): 0.7
- The level of expressed mRNA in the presence of chemical substance/The level of expressed mRNA in the absence of chemical substance (yeast gene YKL151C): 1.4
- The level of expressed mRNA in the presence of chemical substance/The level of expressed mRNA in the absence of chemical substance (yeast gene YKL153W): 0.9
- The level of expressed mRNA in the presence of chemical substance/The level of expressed mRNA in the absence of chemical substance (yeast gene YKL195W): 1.4
- level of expressed mRNA in the presence of chemical substance / level in the absence of chemical substance (yeast gene YKR040C): 0.7
- The level of expressed mRNA in the presence of chemical substance/The level of expressed mRNA in the absence of chemical substance (yeast gene YKR091W): 1.6
- The level of expressed mRNA in the presence of chemical substance/The level of expressed mRNA in the absence of chemical substance (yeast gene YLR054C): 1.6
- The level of expressed mRNA in the presence of chemical substance/The level of expressed mRNA in the absence of chemical substance (yeast gene YLR149C): 1.3
- The level of expressed mRNA in the presence of chemical substance/The level of expressed mRNA in the absence of chemical substance (yeast gene YLR152C): 1.5
- The level of expressed mRNA in the presence of chemical substance/The level of expressed mRNA in the absence of chemical substance (yeast gene YLR194C): 1.0
- level of expressed mRNA in the presence of chemical substance / level in the absence of chemical substance (yeast gene YLR226W): 1.1
- The level of expressed mRNA in the presence of chemical substance/The level of expressed mRNA in the absence of chemical substance (yeast gene YLR324W): 1.2
- level of expressed mRNA in the presence of chemical substance / level in the absence of chemical substance (yeast gene YLR338W): 0.8
- The level of expressed mRNA in the presence of chemical substance/The level of expressed mRNA in the absence of chemical substance (yeast gene YLR350W): 1.6
- The level of expressed mRNA in the presence of chemical substance/The level of expressed mRNA in the absence of chemical substance (yeast gene YLR387C): 1.0
- level of expressed mRNA in the presence of chemical substance / level in the absence of chemical substance (yeast gene YLR392C): 0.8
- level of expressed mRNA in the presence of chemical substance / level in the absence of chemical substance (yeast gene YLR415C): 0.8
- level of expressed mRNA in the presence of chemical substance / level in the absence of chemical substance (yeast gene YLR427W): 1.0
- The level of expressed mRNA in the presence of chemical substance/The level of expressed mRNA in the absence of chemical substance (yeast gene YLR460C): 1.0
- level of expressed mRNA in the presence of chemical substance / level in the absence of chemical substance (yeast gene YML013W): 1.1
- level of expressed mRNA in the presence of chemical substance / level in the absence of chemical substance (yeast gene YML029W): 1.2
- level of expressed mRNA in the presence of chemical substance / level in the absence of chemical substance (yeast gene YML041C): 1.3
- level of expressed mRNA in the presence of chemical substance / level in the absence of chemical substance (yeast gene YML079W): 1.4
- The level of expressed mRNA in the presence of chemical substance/The level of expressed mRNA in the absence of chemical substance (yeast gene YML117W): 1.1
- The level of expressed mRNA in the presence of chemical substance/The level of expressed mRNA in the absence of chemical substance (yeast gene YMR009W): 2.7
- The level of expressed mRNA in the presence of chemical substance/The level of expressed mRNA in the absence of chemical substance (yeast gene YMR067C): 1.0
- level of expressed mRNA in the presence of chemical substance / level in the absence of chemical substance (yeast gene YMR068W): 1.3
- level of expressed mRNA in the presence of chemical substance / level in the absence of chemical substance (yeast gene YMR071C): 1.2
- The level of expressed mRNA in the presence of chemical substance/The level of expressed mRNA in the absence of chemical substance (yeast gene YMR090W): 1.8
- The level of expressed mRNA in the presence of chemical substance/The level of expressed mRNA in the absence of chemical substance (yeast gene YMR095C): 1.0
- The level of expressed mRNA in the presence of chemical substance/The level of expressed mRNA in the absence of chemical substance (yeast gene YMR097C): 1.4
- The level of expressed mRNA in the presence of chemical substance/The level of expressed mRNA in the absence of chemical substance (yeast gene YMR102C): 2.4
- The level of expressed mRNA in the presence of chemical substance/The level of expressed mRNA in the absence of chemical substance (yeast gene YMR107W): 1.3
- level of expressed mRNA in the presence of chemical substance / level in the absence of chemical substance (yeast gene YMR160W): 0.9
- The level of expressed mRNA in the presence of chemical substance/The level of expressed mRNA in the absence of chemical substance (yeast gene YMR180C): 1.4
- The level of expressed mRNA in the presence of chemical substance/The level of expressed mRNA in the absence of chemical substance (yeast gene YMR184W): 1.4
- The level of expressed mRNA in the presence of chemical substance/The level of expressed mRNA in the absence of chemical substance (yeast gene YMR191W): 1.2
- The level of expressed mRNA in the presence of chemical substance/The level of expressed mRNA in the absence of chemical substance (yeast gene YMR295C): 2.1
- The level of expressed mRNA in the presence of chemical substance/The level of expressed mRNA in the absence of chemical substance (yeast gene YMR316W): 6.9
- level of expressed mRNA in the presence of chemical substance / level in the absence of chemical substance (yeast gene YNL026W): 1.0
- The level of expressed mRNA in the presence of chemical substance/The level of expressed mRNA in the absence of chemical substance (yeast gene YNL044W): 3.1
